Measured values reported in US9150845B2, “Lyase enzymes, nucleic acids encoding them and methods for making and using them” (BASF ENZYMES LLC, priority 2005, dated 2015).

Tests used:
DH5α host = assay: Ammonia selection (growth with amino acid substrate, host + vector); assay type: cell-based; conditions: substrate tested
From the text: (§1) An exemplary activity-based discovery protocol comprises use of an ammonia selection using α-methylPhe to screen environmental libraries. […] A phenylalanine selection screen was also implemented to screen libraries, e.g., environmental libraries—which yielded, inter alia, chorismate mutases (CM), which complement a PheA mutation in the auxotroph screening host. An adamantyl phosphonate, an inhibitor of CM activity, also was used to determine whether can minimize background CM activity in this selection/screening protocol.

chorismate mutases (CM) = assay: Phenylalanine selection screen: suppression of background chorismate mutase activity; assay type: cell-based; conditions: PheA auxotroph screening host
From the text: as §1

[1] = Activity assignment of exemplary polypeptides (Table 1, assays of Examples 1, 2 and 3); assay type: biochemical; conditions: Table 1 (FIG. 8)
From the text: Table 1, presented as FIG. 8, details an exemplary activity determined for each exemplary polypeptide of the invention (and, also notes one exemplary nucleic acid of the invention that encodes the exemplary polypeptide; as determined by the assays described in Examples 1, 2 and 3, below. Table 1 also sets forth the source organism from which the polynucleotide was isolated (where “unknown” means that the source was an environmental sample), the GenBank accession number of the top BLAST hit, the organism from which the top BLAST hit was isolated, the percent sequence identity between the polypeptide of the invention and the top BLAST hit, the activity assigned to the top BLAST hit, and notes for that particular polynucleotide/polypeptide entry. […]
HAL enzyme activity can be determined as described in Baedeker & Schulz (Eur. J. Biochem 2002, 269, 1790-1797), wherein enzyme activity was determined as the rate of urocanate formation, measured spectrophotometrically at 277 nm. […] The reaction was started by adding 200 μL of 0.5 M histidine solution and then monitored for approximately 5 minutes.
In one aspect, PAL enzyme activity can be determined as described in Rother & Retey (Eur. J. Biochem, 2002, 269, 3065-3075), by following the formation of E-cinnamate spectrophotometrically at 30° C. at 290 nm. […] Kinetic constants were determined using a double reciprocal plot. […]

With `N[C@@H](Cc1ccccc1Br)C(=O)O` [2-BromoPhe, 2-Bromo-L-phenylalanine] as the molecule, how does the “background growth with negative control (host+empty vector)” value (“background growth with negative control” for short) (DH5α host) read?
The value was “background growth”.

Which “background growth with negative control” value (DH5α host) does the source give for `N[C@@H](Cc1ccccc1Cl)C(=O)O` [2-ChloroPhe, 2-Chloro-L-phenylalanine] here?
Its value is “background growth”.

With `N[C@@H](Cc1ccccc1)C(=O)O` [Phe, phenylalanine] as the molecule, how does the “background growth with negative control” value (DH5α host) read?
Its value is “background growth”.

For `C[C@](N)(Cc1ccccc1)C(=O)O` [α-methylPhe, α-methylphenylalanine], which “background growth with negative control” value (DH5α host) is on record?
The value was “no background growth”.

With adamantyl phosphonate as the molecule, how does the “inhibition of background CM activity in selection/screening protocol” value (chorismate mutases (CM)) read?
The value was “lack of potency”.

B1: SEQ ID NO:236: polypeptide encoded by SEQ ID NO:235, initially isolated from Pseudomonas fluorescens PfO-1 (protein)
chain: MITIRGEGLTIAQIAAVARGAPVRMTDDEAVLARVRASRQRIVEALESGQQIYGVTTLYGGMADRVVPADRLEALQRVSLWHHKVGAGPRLPVPDVRAAMLLRANSLLKGASGVRVELVERYVAFLNAGATPHVYQRGSIGASGDLSPLAYIGAAVIGLDRAWLVDLGEETLDCLTVLRRLGLEPMILQPKEGLALCNGTAASTGVAANCIERAFALTALALGTHALYFQALDATTQSFEPFVHALKPHPGQVWTAREMAALLDGSGLVRSEAAGDRAHRRGGLIQDRYSLRCMPQFVGPIVDGLAEAARQIEIEANSANDNPLIDPETGEVFHTGNFLAEYTAVAMDRLRYHLGMLAKHLDTQIALLVAPEFSRGLSPSLAGNLEPGLNVGLKSLQISCNSLMPLLTFYGQSMADRFPTHAEQFNQNINSQAMNGANLARDSVEVLAHFMANALVFAVQAVELRAWLVAGTYDASEVLSPATRPLYAAARAAAAGPPGPHRPLVWNDTDGFLEDKVRGVMSSILEGGAVPEAVAPVRERLRAHRG
modifications: Obtained from environmental sample; DOMAIN (1)...(492): Phenylalanine and histidine ammonia-lyase; SITE (140)...(156): Phenylalanine and histidine ammonia-lyases signature. Prosite id = PS00488; SITE (201)...(204): N-glycosylation site. Prosite id = PS00001; SITE (514)...(517): N-glycosylat
With B1 as the molecule, how does the “exemplary activity determined for the polypeptide” value [1] read?
The value was “esterase activity”.

B2: SEQ ID NO:2: polypeptide encoded by SEQ ID NO:1, initially isolated from Tannerella forsythensis ATCC 43037 (protein)
chain: MEKTVTYQSEKGFSIHDVERLLLGQSHLKLSAESLQKVERCFIFLREFSTDKVIYGINTGFGPMAQYRVDDNCLKQLQYNIIRSHSTGAGEPLDPIYVKAAMIARLSTFLQGYSGIHTDLVRLLTEFINRDICPFIPEHGSVGASGDLVQLAHIALTLIGEGEVFYEGKRRPTAEVMQKEKLSPLDIYIREGLSATNGTSVMTGIGLVNLIYAKRLLHWSIAASVMMNEIASSYDDLMSPGLNATKRHEGQQEIARAMCRWAAGSKAMRKREIEMFQRHTEKVFGHKVQAYYSLRCVPQILGPIWDTMAYAEKVLVDELNSACDNPIVDPEAQYVYHGGNFHGDYISFEMDKLKIAVTKMTMLAERQLNYLFHNRINDDILPPFVNLGVLGLNYGLQAAQFTATSTTAECQTLSNPMYIHSIPNNNDNQDIVSMGANAALMAKTVIENGYQVMAIHFMALVQAVDYLKLQPRMAEKTRAVYDEIRAFFPVFTDDTPKYREIETMITYLKSSGKRI
modifications: Tannerella forsythensis ATCC 43037; DOMAIN (4)...(493): Phenylalanine and histidine ammonia-lyase
With B2 as the molecule, how does the “exemplary activity determined for the polypeptide” value [1] read?
Its value is “TAL and PAL activity”.
